Results taken from patent US9738660B2, “Selective inhibitors for protein kinases and pharmaceutical composition and use thereof” (National Chiao Tung University, priority 2014, dated 2017).
Where two headings read alike, the source gives them in different places.

Columns and labels:
Assay in all cases: Kinase Profiler, residual kinase activity
Type in all cases: biochemical
GSK3B = GSK3B (Homo sapiens, UniProt P49841); settings: GSK3B; inhibitor at 500 nM; read-out: percentage of the remaining kinase activity
Excerpt: (§1) Kinase Profiler services provided by […]. (http://www.reactionbiology.com) were used to analyze the data of the 9 type-S protein kinase inhibitors against the 40 types of protein kinases.

PRKACA = target: T1, PRKACA (Homo sapiens, UniProt P17612); settings: PRKACA; inhibitor at 500 nM; read-out: percentage of the remaining kinase activity
T1 construct: purchased Research Biology Corp. (http://www.reactionbiology.com)
Excerpt: as §1

LIMK1 = LIMK1 (Homo sapiens, UniProt P53667); settings: read-out: percentage of the remaining kinase activity
Excerpt: as §1

OXSR1 = target: T2, OXSR1 (Homo sapiens, UniProt O95747); settings: read-out: percentage of the remaining kinase activity
T2 construct: purchased Research Biology Corp. (http://www.reactionbiology.com)
Excerpt: as §1

RPS6KA5 = target: T3, RPS6KA5 (Homo sapiens, UniProt O75582); settings: read-out: percentage of the remaining kinase activity
T3 construct: purchased Research Biology Corp. (http://www.reactionbiology.com)
Excerpt: as §1

INSR = target: T4, INSR (Homo sapiens, UniProt P06213); settings: read-out: percentage of the remaining kinase activity
T4 construct: purchased Research Biology Corp. (http://www.reactionbiology.com)
Excerpt: as §1

FGFR2 = target: T5, FGFR2 (Homo sapiens, UniProt P21802); settings: for remaining activity at 0.5 µM: FGFR2, inhibitor at 500 nM, read-out: percentage of the remaining kinase activity
T5 construct: purchased Research Biology Corp. (http://www.reactionbiology.com)
Excerpt: as §1

SRPK1 = target: T6, SRPK1 (Homo sapiens, UniProt Q96SB4); settings: SRPK1; inhibitor at 500 nM; read-out: percentage of the remaining kinase activity
T6 construct: purchased Research Biology Corp. (http://www.reactionbiology.com)
Excerpt: as §1

IRAK4 = target: T7, IRAK4 (Homo sapiens, UniProt Q9NWZ3); settings: read-out: percentage of the remaining kinase activity
T7 sequence (Q9NWZ3 1-460): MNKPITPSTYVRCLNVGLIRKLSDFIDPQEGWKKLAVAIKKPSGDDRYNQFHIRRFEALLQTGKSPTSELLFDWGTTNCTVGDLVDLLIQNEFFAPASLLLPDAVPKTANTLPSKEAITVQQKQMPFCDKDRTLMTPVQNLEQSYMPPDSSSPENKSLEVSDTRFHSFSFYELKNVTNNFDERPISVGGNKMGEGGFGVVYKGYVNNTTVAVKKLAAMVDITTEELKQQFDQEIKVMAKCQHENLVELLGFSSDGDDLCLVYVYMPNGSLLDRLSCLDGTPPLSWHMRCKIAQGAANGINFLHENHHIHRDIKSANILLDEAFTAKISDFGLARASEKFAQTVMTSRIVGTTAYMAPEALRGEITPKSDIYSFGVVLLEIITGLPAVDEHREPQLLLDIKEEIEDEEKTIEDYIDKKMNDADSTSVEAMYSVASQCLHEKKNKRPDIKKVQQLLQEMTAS
Excerpt: as §1

JAK2 = JAK2 (Homo sapiens, UniProt O60674); settings: JAK2; inhibitor at 500 nM; read-out: percentage of the remaining kinase activity
Excerpt: as §1

RET = RET (Homo sapiens, UniProt P07949); settings: RET; inhibitor at 500 nM; read-out: percentage of the remaining kinase activity
Excerpt: as §1

STK4 = target: T8, STK4 (Homo sapiens, UniProt Q13043); settings: read-out: percentage of the remaining kinase activity
T8 construct: purchased Research Biology Corp. (http://www.reactionbiology.com)
T8 sequence (Q13043 1-487): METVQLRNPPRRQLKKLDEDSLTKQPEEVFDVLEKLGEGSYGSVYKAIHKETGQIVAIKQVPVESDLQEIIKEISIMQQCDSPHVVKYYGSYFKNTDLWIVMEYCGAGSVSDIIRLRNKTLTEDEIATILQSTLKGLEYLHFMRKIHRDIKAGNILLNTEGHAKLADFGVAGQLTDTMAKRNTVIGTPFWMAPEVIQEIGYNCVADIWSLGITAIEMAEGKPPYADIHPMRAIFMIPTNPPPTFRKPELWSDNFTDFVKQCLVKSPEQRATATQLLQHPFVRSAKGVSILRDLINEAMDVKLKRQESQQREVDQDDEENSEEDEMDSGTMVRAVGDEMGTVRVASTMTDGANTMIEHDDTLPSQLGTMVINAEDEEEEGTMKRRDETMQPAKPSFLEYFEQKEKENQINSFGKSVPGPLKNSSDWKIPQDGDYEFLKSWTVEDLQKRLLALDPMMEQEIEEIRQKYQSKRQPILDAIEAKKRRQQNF
Excerpt: as §1

CAMK2D = CAMK2D (Homo sapiens, UniProt Q13557); settings: for remaining activity at 0.5 µM: read-out: percentage of the remaining kinase activity
Excerpt: as §1

DYRK1A = DYRK1A (Homo sapiens, UniProt Q13627); settings: DYRK1A; inhibitor at 500 nM; read-out: percentage of the remaining kinase activity
Excerpt: as §1

EGFR = target: T9, EGFR (Homo sapiens, UniProt P00533); settings: EGFR; inhibitor at 500 nM; read-out: percentage of the remaining kinase activity
T9 construct: purchased Research Biology Corp. (http://www.reactionbiology.com)
Excerpt: as §1

DAPK1 = DAPK1 (Homo sapiens, UniProt P53355); settings: read-out: percentage of the remaining kinase activity
Excerpt: as §1

FGFR1 = FGFR1 (Homo sapiens, UniProt P11362); settings: FGFR1; inhibitor at 500 nM; read-out: percentage of the remaining kinase activity
PLK1 = target: T10, PLK1 (Homo sapiens, UniProt P53350); settings: PLK1; inhibitor at 500 nM; read-out: percentage of the remaining kinase activity
T10 construct: purchased Research Biology Corp. (http://www.reactionbiology.com)

CHEK2 = CHEK2 (Homo sapiens, UniProt O96017); settings: CHEK2; inhibitor at 500 nM; read-out: percentage of the remaining kinase activity
ABL1 = ABL1 (Homo sapiens, UniProt P00519); settings: ABL1; inhibitor at 500 nM; read-out: percentage of the remaining kinase activity
Sequence of ABL1 (P00519 whole entry): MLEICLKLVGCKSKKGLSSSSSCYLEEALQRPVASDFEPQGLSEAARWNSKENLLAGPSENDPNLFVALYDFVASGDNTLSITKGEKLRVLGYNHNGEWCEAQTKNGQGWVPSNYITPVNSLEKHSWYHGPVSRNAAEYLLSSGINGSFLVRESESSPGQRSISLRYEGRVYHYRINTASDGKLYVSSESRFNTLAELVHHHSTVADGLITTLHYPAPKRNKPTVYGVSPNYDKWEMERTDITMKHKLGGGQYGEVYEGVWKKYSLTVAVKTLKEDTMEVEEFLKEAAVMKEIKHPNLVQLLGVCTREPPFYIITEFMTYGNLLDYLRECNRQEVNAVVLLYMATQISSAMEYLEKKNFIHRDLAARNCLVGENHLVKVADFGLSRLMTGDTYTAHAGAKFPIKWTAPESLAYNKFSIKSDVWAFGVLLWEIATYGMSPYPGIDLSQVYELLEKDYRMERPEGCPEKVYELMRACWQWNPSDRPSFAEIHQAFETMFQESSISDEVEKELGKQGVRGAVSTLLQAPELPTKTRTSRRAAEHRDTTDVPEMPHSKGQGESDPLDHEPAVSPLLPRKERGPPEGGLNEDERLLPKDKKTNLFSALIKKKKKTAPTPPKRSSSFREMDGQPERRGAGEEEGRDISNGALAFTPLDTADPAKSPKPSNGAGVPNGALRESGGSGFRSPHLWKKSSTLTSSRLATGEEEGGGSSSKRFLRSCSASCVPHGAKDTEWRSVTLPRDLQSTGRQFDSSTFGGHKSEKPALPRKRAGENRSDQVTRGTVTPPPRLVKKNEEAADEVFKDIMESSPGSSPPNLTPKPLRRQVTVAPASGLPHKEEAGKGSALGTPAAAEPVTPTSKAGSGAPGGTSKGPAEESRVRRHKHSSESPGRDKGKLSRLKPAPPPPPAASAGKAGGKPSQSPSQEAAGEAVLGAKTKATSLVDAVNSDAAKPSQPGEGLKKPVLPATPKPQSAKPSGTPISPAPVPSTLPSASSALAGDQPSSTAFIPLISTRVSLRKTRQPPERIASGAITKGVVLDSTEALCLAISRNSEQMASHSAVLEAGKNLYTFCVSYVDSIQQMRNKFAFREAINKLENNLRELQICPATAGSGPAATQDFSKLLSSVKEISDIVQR

Sequence of RET (P07949 29-1114): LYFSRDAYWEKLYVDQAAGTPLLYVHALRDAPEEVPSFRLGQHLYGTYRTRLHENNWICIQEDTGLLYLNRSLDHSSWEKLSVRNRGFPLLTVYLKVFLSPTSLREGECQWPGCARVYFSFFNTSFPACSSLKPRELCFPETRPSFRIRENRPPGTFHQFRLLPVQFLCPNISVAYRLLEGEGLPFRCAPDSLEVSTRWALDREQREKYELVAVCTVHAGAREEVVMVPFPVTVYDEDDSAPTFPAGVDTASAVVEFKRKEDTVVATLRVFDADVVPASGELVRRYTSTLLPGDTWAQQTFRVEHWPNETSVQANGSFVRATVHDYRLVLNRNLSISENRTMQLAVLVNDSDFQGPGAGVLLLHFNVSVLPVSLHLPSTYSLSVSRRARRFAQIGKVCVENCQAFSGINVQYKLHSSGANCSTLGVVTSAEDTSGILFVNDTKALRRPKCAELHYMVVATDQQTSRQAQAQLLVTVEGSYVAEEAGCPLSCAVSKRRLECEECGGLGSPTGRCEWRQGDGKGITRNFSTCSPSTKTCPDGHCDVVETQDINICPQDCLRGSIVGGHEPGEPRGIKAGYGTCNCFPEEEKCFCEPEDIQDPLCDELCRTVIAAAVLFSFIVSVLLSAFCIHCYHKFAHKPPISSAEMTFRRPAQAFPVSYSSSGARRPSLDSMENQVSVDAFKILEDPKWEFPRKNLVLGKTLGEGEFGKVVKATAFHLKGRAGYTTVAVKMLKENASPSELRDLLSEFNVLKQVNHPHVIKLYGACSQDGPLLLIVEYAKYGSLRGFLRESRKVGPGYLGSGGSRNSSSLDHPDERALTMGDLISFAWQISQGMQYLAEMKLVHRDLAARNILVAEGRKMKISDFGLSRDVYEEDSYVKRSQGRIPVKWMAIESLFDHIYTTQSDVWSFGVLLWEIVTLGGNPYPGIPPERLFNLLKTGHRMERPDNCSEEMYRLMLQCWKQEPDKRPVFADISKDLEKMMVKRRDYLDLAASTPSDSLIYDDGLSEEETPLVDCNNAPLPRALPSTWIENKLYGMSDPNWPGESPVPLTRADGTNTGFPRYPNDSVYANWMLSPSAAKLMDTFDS
T10 sequence (P53350 whole entry): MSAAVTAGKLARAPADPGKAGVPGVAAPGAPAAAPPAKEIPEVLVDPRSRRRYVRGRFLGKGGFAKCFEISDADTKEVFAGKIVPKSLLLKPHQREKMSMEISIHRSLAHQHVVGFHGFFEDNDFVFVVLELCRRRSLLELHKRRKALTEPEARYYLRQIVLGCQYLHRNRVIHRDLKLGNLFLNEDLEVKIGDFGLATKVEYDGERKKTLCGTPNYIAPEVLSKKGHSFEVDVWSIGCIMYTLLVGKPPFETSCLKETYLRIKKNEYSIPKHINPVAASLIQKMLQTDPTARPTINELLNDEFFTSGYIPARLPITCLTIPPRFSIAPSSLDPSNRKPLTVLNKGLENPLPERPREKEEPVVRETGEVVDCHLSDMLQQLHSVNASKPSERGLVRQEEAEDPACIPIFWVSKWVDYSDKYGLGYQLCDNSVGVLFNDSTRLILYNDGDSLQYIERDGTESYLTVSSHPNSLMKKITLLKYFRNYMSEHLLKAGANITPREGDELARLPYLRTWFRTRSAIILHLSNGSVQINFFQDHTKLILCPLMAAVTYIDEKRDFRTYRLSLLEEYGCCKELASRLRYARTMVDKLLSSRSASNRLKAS
T6 sequence (Q96SB4 whole entry): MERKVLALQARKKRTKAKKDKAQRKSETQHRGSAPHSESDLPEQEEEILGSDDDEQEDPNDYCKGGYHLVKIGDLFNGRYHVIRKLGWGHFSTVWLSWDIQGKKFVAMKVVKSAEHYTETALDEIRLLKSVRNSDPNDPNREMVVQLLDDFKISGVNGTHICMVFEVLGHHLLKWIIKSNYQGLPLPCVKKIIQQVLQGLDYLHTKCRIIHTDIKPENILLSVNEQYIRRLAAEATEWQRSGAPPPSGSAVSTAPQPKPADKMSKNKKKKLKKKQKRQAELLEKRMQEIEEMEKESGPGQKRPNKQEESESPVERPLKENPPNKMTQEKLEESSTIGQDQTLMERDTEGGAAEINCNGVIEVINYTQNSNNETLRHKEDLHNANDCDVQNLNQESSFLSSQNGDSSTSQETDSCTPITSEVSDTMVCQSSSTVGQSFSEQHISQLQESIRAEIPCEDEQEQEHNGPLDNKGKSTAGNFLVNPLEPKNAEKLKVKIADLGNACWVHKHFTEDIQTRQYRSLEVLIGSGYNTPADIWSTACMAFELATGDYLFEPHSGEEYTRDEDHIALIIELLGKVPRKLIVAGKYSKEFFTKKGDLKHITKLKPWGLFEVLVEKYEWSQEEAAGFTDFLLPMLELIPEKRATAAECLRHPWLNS
Sequence of LIMK1 (P53667 whole entry): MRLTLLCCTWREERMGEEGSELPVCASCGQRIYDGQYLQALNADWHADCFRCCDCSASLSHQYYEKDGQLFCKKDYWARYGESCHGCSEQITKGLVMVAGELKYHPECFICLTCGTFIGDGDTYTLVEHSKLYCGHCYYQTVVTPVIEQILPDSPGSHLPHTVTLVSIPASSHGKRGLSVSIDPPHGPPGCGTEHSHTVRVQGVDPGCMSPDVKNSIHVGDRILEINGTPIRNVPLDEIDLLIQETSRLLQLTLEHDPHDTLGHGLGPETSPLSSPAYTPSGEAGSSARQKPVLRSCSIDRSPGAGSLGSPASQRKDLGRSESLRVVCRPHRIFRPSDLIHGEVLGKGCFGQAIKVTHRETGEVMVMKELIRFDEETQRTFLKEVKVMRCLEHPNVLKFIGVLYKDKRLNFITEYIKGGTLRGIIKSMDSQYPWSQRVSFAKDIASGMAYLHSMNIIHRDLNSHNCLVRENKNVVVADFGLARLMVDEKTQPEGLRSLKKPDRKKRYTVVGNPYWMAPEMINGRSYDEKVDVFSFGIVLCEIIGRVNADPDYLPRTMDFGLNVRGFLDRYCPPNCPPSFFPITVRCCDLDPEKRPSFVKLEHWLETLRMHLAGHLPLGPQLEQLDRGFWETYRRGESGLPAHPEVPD
T5 sequence (P21802 22-821): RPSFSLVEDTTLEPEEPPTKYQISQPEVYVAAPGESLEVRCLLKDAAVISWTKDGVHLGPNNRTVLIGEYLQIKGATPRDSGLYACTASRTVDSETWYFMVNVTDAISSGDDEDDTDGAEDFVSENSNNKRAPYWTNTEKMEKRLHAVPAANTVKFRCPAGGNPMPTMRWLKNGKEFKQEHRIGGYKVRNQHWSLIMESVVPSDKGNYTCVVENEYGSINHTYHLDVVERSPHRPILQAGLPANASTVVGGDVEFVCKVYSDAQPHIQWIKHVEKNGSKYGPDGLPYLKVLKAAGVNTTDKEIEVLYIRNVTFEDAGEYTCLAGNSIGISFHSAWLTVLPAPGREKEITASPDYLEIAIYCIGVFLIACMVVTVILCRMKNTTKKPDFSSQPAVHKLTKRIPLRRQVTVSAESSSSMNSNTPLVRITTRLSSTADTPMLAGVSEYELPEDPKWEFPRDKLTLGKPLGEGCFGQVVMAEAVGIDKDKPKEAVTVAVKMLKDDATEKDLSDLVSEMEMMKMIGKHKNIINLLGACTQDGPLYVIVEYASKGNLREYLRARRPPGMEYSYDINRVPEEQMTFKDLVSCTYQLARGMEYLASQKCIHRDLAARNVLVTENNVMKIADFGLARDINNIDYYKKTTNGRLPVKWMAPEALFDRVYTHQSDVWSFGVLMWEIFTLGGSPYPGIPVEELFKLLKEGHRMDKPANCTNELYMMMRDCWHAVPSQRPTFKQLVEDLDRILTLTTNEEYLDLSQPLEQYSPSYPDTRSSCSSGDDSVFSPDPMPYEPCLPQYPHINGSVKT

Row | Compound | remaining activity at 0.5 µM (GSK3B) | remaining activity at 0.5 µM (PRKACA) | remaining activity at 0.5 µM (LIMK1; LIMK1, inhibitor at 500 nM) | remaining activity at 0.5 µM (OXSR1; OXSR1, inhibitor at 500 nM) | remaining activity at 0.5 µM (RPS6KA5; RPS6KA5, inhibitor at 500 nM) | remaining activity at 0.5 µM (INSR; INSR, inhibitor at 500 nM) | remaining activity at 0.5 µM (FGFR2) | remaining activity at 0.5 µM (SRPK1) | remaining activity at 0.5 µM (IRAK4; IRAK4, inhibitor at 500 nM) | remaining activity at 0.5 µM (JAK2) | remaining activity at 0.5 µM (RET) | remaining activity at 0.5 µM (STK4; STK4, inhibitor at 500 nM) | remaining activity at 0.5 µM (CAMK2D; CAMK2D, inhibitor at 500 nM) | remaining activity at 0.5 µM (DYRK1A) | remaining activity at 0.5 µM (EGFR) | remaining activity at 0.5 µM (DAPK1; DAPK1, inhibitor at 500 nM) | remaining activity at 0.5 µM (FGFR1) | remaining activity at 0.5 µM (PLK1) | remaining activity at 0.5 µM (CHEK2) | remaining activity at 0.5 µM (ABL1) | further results
1 | COC1C(N(C)C(=O)C(N)Cc2c[nH]cn2)CC2OC1(C)n1c3ccccc3c3c4c(c5c6ccccc6n2c5c31)C(=O)NC4 (stereo not drawn) [Compound 1] | 17.9% | 13.9% | 18.8% | 106% | 1.7% | 23.1% | 9.8% | 24.4% | 33.4% | 4.4% | 6% | 1.8% | 2% | 0.4% | 30.5% | 26% | 5.1% | 93.8% | 30.3% | 77.6% | –
2 | COC1C(N(C)C(=O)C(N)Cc2cn(C(=O)OC(C)(C)C)c3ccccc23)CC2OC1(C)n1c3ccccc3c3c4c(c5c6ccccc6n2c5c31)C(=O)NC4 (stereo not drawn) [Compound 2] | 94.2% | 81.1% | 103% | 116% | 61.4% | 97.9% | 88.4% | 95.7% | 101% | 70% | 101% | 72.8% | 16.1% | 88.6% | 110% | 107% | 101% | 97.9% | 95.8% | 109% | IC50 (CAMK2D; CAMK2D, inferred from test at 500 nM (FIG. 1)): < 500 nM
3 | COC1C(N(C)C(=O)C(N)Cc2ccc(OC(C)(C)C)cc2)CC2OC1(C)n1c3ccccc3c3c4c(c5c6ccccc6n2c5c31)C(=O)NC4 (stereo not drawn) [Compound 4] | 86.6% | 38.3% | 66.9% | 110% | 1.6% | 84.8% | 43.2% | 85% | 87.4% | 36.4% | 63% | 12% | 6.7% | 17.8% | 108% | 96.4% | 53.3% | 104% | 80.4% | 107% | inhibitory effect on FGFR2 (FGFR2; in words): had an inhibitory effect on FGFR2
4 | COC1C(N(C)C(=O)C(N)Cc2ccc(O)cc2)CC2OC1(C)n1c3ccccc3c3c4c(c5c6ccccc6n2c5c31)C(=O)NC4 (stereo not drawn) [Compound 5] | 29.4% | 32.6% | 46.9% | 109% | 2.4% | 69.1% | 21.7% | 61.1% | 85.9% | 19.4% | 21.3% | 5.5% | 10.1% | 0.6% | 93.1% | 105% | 16.6% | 99.2% | 73.2% | 104% | –
5 | COC1C(N(C)C(=O)C(N)CCC(=O)OC(C)(C)C)CC2OC1(C)n1c3ccccc3c3c4c(c5c6ccccc6n2c5c31)C(=O)NC4 (stereo not drawn) [Compound 6] | 79.7% | 40.8% | 39.5% | 111% | 3.3% | 72.3% | 26.5% | 65.3% | 63.5% | 39.6% | 34.2% | 6% | 12.7% | 13.8% | 108% | 101% | 29.5% | 104% | 82.7% | 97.6% | –
6 | COC1C(N(C)C(=O)C(N)CCC(=O)O)CC2OC1(C)n1c3ccccc3c3c4c(c5c6ccccc6n2c5c31)C(=O)NC4 (stereo not drawn) [Compound 7] | 9.6% | 18.6% | 1.4% | 100% | 1.8% | 32.8% | 9.2% | 38.9% | 46.8% | 1.5% | 1.6% | 1.9% | 2.3% | 0.6% | 82.2% | 26.2% | 3.2% | 80.9% | 47.2% | 68% | –
7 | CN[C@@H]1C[C@H]2O[C@@](C)([C@@H]1OC)n1c3ccccc3c3c4c(c5c6ccccc6n2c5c31)C(=O)NC4 [STU, staurosporine, reference compound] | – | – | – | – | – | – | – | 17.7% | – | 0.8% | – | – | – | – | – | – | – | – | – | – | remaining activity at 0.5 µM (LIMK1): -0.6%; remaining activity at 0.5 µM (OXSR1): 15.8%; remaining activity at 0.5 µM (RPS6KA5): 1.1%; remaining activity at 0.5 µM (INSR): 16.2%; remaining activity at 0.5 µM (IRAK4): 1.6%; remaining activity at 0.5 µM (STK4): 5.5%; remaining activity at 0.5 µM (CAMK2D): 0.4%; remaining activity at 0.5 µM (DAPK1): 1.9%
